Experiments:
TGF-β1 = experiment: Real-time RT-PCR of TGF-β1 mRNA in HSC T6 cells; type: cell-based, rat; settings: 48 h
Protocol: (§1) FIG. 9. DBZIM and TDBZIM suppressed TGF-β1 mRNA. HSC T6 cells were incubated with (a) DBZIM (1, 10, 100 and 300 μM) and (b) TDBZIM (1, 10 and 100 μM) for 48 h for the dosage-dependent study, and (c) with DBZIM (100 μM) and TDBZIM (100 μM) for 8, 24 and 48 h for the time-dependent study. The expression level of TGF-β1 mRNA was quantified with real-time RT-PCR. The data were presented as mean and SEM, N=6, *^aP<0.05, *^bP<0.01, *^cP<0.005, when compared to vehicle control.
(§2) Total RNA was isolated using NucleoSpin RNAII isolation kit (Nacherey & Nagel, Germany), and quantified by ND-100 spectrophotometer (Nanodrop Technologies, DE, USA). The details of real-time RT-PCR were reported elsewhere (Zhang et al. 2006). Briefly, it was a two-step real-time RT-PCR using Taqman chemistry. Total RNA was first reverse transcribed to cDNA, and real-time PCR was run and detected in ABI 7500 Fast Real-Time PCR System (Applied Biosystems, CA, USA). Primers and probes for rat GFAP, SMAA, collagen Ia1, fibronectin, TGF-β1, TGF-β receptor I (TGFβ RI) and IL-6 were ordered from Taqman's assay-on-demand database. Rat β-actin was used as normalization gene, and its expression level was constant (CT difference was <±0.5) throughout the experimental settings in this study. Relative quantification of target mRNA was calculated using comparative threshold cycle method (ΔΔCT) as described in User Bulletin #2 (ABI Prism 7700 Sequence Detection System). Relative quantification was given by 2^−ΔΔCT to express the up-regulation or down regulation of the target gene under the treatments compared to the control.

IL-6 = experiment: Real-time RT-PCR of IL-6 mRNA in HSC T6 cells; type: cell-based, rat; settings: for inhibition of IL-6 transcription: 48 h
Protocol: as §1, with “10.” for “9.”, “IL-6” for “TGF-β1”, “with” for “with (a)”, “N=6,” for “N=6, *^aP<0.05,”, “*^cP<0.005, and *^dP<0.0005,” for “*^cP<0.005,”, “to the” for “to”
as §2

HLE cells [1] = experiment: Apoptosis assay (Annexin V-FITC/PI flow cytometry); type: cell-based, human; settings: 72 h, IBN-15 60 μM, IBN-19 90 μM, IBN-24 90 μM, IBN-25 30 μM, IBN-32 20 μM, DMSO 0.045%
Protocol: FIG. 36. IMSs induce apoptosis in Hepatocarcinoma cells. A) Cells were treated with vehicle and IBN 15, IBN 19, IBM 24, IBN 25 and IBN 32 for 72 h, and apoptosis was quantified using Annexin V-FITC/PI staining followed by flow cytometric analysis. 10,000 cells were detected for every sample. Living cells are in the bottom left quadrants (FITC− and PI−), early apoptotic cells in the bottom right quadrants (FITC+ and PI−), and late apoptotic cells in the upper right quadrants (apoptotic FITC+ and PI+). B) The percentage of apoptotic cells with respect to different IMSs.
To determine apoptosis analysis, 4×10^5 cells were plated in 10 cm dish. […] The floating and trypsinized adherent cells were collected and the apoptosis was quantified using Annexin V-FITC reagent (BD Biosciences Pharmingen) and PI (Invitrogen) following the manufacturer's protocol. Briefly, the cells were washed twice with cold PBS and then resuspend cell in 100 μl of × binding buffer containing a 10 μl of Annexin V-FITC (BD-Pharminagen) and 2 μl of PI from the stock of 100 μg/ml. The cells were gently vortexed and incubated for 15 min at room temperature in the dark. Subsequently 400 μl of 1× binding buffer were added to each tube, and the samples were immediately analyzed by FACScan flow cytometer (Becton Dickinson). The fluorescent signals of the Annexin-V conjugate and PI were detected at channels of fluorescence intensity FL1 and FL2 (BD LSR II with software BD).
Cells undergoing apoptosis would stain positive for Annexin and negative for PI (quadrant 4, Q4). Cells which stained positive for both Annexin V-FITC and PI (Q2) are either at the end stage of apoptosis or undergoing necrosis, and those which stained negative for both Annexin V-FITC and PI (Q3) were alive or undergoing undetectable apoptosis. In contrast, cell debris stained only for PI (Q1).

HLE cells [2] = experiment: Cell cycle analysis (PI flow cytometry); type: cell-based, human; settings: 72 h; for cells in the S phase: at respective IC-50, control 24%; for cells in the G2/M phase: at respective IC-50, control 30%; for cells in the G1 phase: at respective IC-50, control 50%
Protocol: FIG. 37. IMSs arrest Hepatocarcinoma cells. Cells were treated with vehicle and IBN 15, IBN 19, IBN 24, IBN 25 and IBN 32 for 72 h, and cell cycle distribution was assessed by flow cytometry. A) Example FACS profiles of propidium iodide-stained control cells, and cells treated with IMSs respectively. B) % of cells in cell cycle phase C) % of cells in subG0 population. Each value is the mean±S.D. of three determinations.
To perform cell cycle distribution analysis, 4×10^5 cells were plated in 10 cm dish. The cells (70% confluence) were serum-starved for 24 h to synchronize them in the G0 phase of the cell cycle. After 24 h incubation, the cells were replaced with fresh 10% DMEM medium and then treated 60 μM of IBN-15, 90 μM of IBN-19, 90 μM of IBN-24, 30 μM of […] and 20 μM of IBN-32) and 0.045% DMSO as control for 72 h. The floating and trypsinized adherent cells were collected and washed with PBS. The cell pellets were resuspended in 1 ml of PBS and fixed by the addition of 70% ice-cold ethanol and stored at −20° C. After incubation for 24 hr, the cells were re-pelleted by centrifugation, the cells were washed once with PBS and resuspended in 0.1 mL of PBS containing 100 μg/ml of RNase and then incubated at 37° C. for 15 min. Finally, the cells were stained with 0.5 ml of PI solution (100 μg/mL in PBS) for 30 min. Cell cycle distribution was detected by a BD FACS array flow cytometer (Becton Dickinson). Cells with sub-G0 DNA were classified as apoptotic cells.

Compound | inhibition of TGF-β1 mRNA (TGF-β1; regardless of dosage (1-100 μM)) [%] | inhibition of IL-6 transcription (IL-6; 1 μM) [%] | inhibition of IL-6 transcription (IL-6; 10 μM) [%] | inhibition of IL-6 mRNA expression (IL-6; 100 μM, 24 h) [%] | inhibition of IL-6 transcription (IL-6; 100 μM) [%] | suppression of TGF-β1 mRNA (TGF-β1; 100 μM) [%] | suppression of TGF-β1 mRNA (TGF-β1; 300 μM) [%] | suppression of IL-6 mRNA (IL-6; 100 μM, shorter treatment than 48 h (8, 24 h)) | inhibition of IL-6 transcription (IL-6; 300 μM) [%] | cell apoptosis (Q2) (HLE cells [1]) [%] | cells in the S phase (HLE cells [2]) [%] | cells in the G2/M phase (HLE cells [2]) [%] | cells in the G1 phase (HLE cells [2]) [%]
1,3,5-tris(4-methyl-imidazolium)-linked cyclophane.3Br [TDBZIM] | ~23 | 37 | 55 | 52 | 80 |  |  |  |  |  |  |  | 
[Br-].c1ccc(Cn2cc[n+](Cc3ccccc3)c2)cc1 [DBZIM, 1,3-bisbenzylimidazolium bromide] |  | 37 | 46 |  | 53 | 28 | 33 | did not show statistically significant suppression | 59 |  |  |  | 
CC(=O)Oc1ccc(C[n+]2ccn(Cc3ccccc3)c2C)cc1.[Cl-] [IBN-19, 1-benzyl-3-(4-acetate-benzyl)-2-methyl-imidazolium chloride] |  |  |  |  |  |  |  |  |  | 29 | 19.8 | 23.7 | 29
Cc1ccc(C[n+]2ccn(Cc3ccccc3)c2)cc1.[Cl-] [IBN-24, 1-benzyl-3-(4-methylbenzyl)-imidazolium chloride] |  |  |  |  |  |  |  |  |  | 29 | 11.34 | 16.3 | 28.6
